This passage reports Km results from article PMC10561253, “2-NBDG Uptake in Gossypium hirsutum in vitro ovules: exploring tissue-specific accumulation and its impact on hexokinase-mediated glycolysis regulation” (Frontiers in Plant Science, 2023).

The test system of the assay is T1, GhHxk9.
T1 construct: codon-optimized synthetic gene, E. coli BL21(DE3), pET-28-14His-bdSumo, tag cut off by bdSENP1, tagless wild-type; 51 kDa; printed residues: L398-K404 TLKDGEK, S132-R141 SEGLHFSPDR
The assay is described as follows: coupled assay with E. coli glucose-6-phosphate dehydrogenase, absorbance at […] nm. The assay is classed as biochemical, Gossypium hirsutum. The conditions noted are these: 1 mM ATP, 10 mM MgCl2, 1 mM NADP+, 100 mM Tris pH 7.5, 30 °C; read-out: apparent Km.

Consider `OC[C@H]1OC(O)[C@H](O)[C@@H](O)[C@@H]1O` (stereo partly drawn) [D-glucose], for which the Michaelis-Menten constant (Km) was found to be 37 ± 19.8 µM.

As a reminder, the Km is the substrate concentration at which the rate is half of its maximum.
